pKi: −log10 of the molar value. Read-outs that look alike come from different tables or passages of the source.
What was measured:
human orexin 1 receptor = human orexin 1 receptor (Homo sapiens, UniProt O43613); experiment: Human orexin 1 receptor radioligand binding; details: human orexin 1 receptor; averages of 2-20 runs; read-out: hOX1 Ki
Protocol: (§1) Data are analyzed using pc-Sandy macro and graphed on Graphpad Prism 5. For analysis, each concentration point is averaged from triplicate values and the averaged values are plotted on Graphpad Prism. The IC50 was determined by applying the following equation (GraphPad Prism 5.0, SanDiego) for one site competition where X=log (concentration) and Y=specific binding. Top denotes the total [^3H]-(1-(5-(2-fluoro-phenyl)-2-methyl-thiazol-4-yl)-1-((S)-2-(5-phenyl-(1,3,4)oxadiazol-2-ylmethyl)-pyrrolidin-1-yl)-methanone) binding, bottom denotes the nonspecific [^3H]-(1-(5-(2-fluoro-phenyl)-2-methyl-thiazol-4-yl)-1-((S)-2-(5-phenyl-(1,3,4)oxadiazol-2-ylmethyl)-pyrrolidin-1-yl)-methanone) binding. Graphpad Prism calculates Ki value from IC50 and the pre-determined Kd values for [^3H]-(1-(5-(2-fluoro-phenyl)-2-methyl-thiazol-4-yl)-1-((S)-2-(5-phenyl-(1,3,4)oxadiazol-2-ylmethyl)-pyrrolidin-1-yl)-methanone) and [3H]-EMPA. The Ki for each compound is then uploaded into 3DX. Each run comprises individual compounds in triplicate. The data in Table 1 and Table 2 represent averages from between 2-20 runs
(§2) Rat and Human Orexin 1 Receptor Radioligand Binding Studies
(§3) After centrifugation (2K×G, 5 min at 4° C.), the supernatant was aspirated and the pellets frozen and stored at −80° C. […] Each cell pellet from a 15 cm plate was resuspended in 10 mL, stored on ice, and homogenized for 45 sec prior to addition to the reactions. […] The final concentration of DMSO in the reactions is equal to or less than 0.1%. Total and nonspecific binding was determined in the absence and presence of 10 μM almorexant. The total volume of each reaction is 200 μL (20 μL of diluted compounds, 80 μL of [^3H]-(1-(5-(2-fluoro-phenyl)-2-methyl-thiazol-4-yl)-1-((S)-2-(5-phenyl-(1,3,4)oxadiazol-2-ylmethyl)-pyrrolidin-1-yl)-methanone) diluted in PBS and 100 μL of the cell suspension). […] The plates were washed 3 times by aspirating 30 ml PBS through the plates. Plates were dried in 55° C. oven for 60 min, scintillation fluid was added, and the radioactivity was counted on a Topcount (Packard).

rat orexin 1 receptor = rat orexin 1 receptor (Rattus norvegicus, UniProt P56718); experiment: Rat orexin 1 receptor radioligand binding; details: read-out: rOX1 Ki
Protocol: as §1, §2, §3

human orexin 2 receptor = human orexin 2 receptor (Homo sapiens (Human), UniProt O43614); experiment: Human orexin 2 receptor radioligand binding; details: read-out: hOX2 Ki
human orexin 2 receptor, sequence (O43614 whole entry): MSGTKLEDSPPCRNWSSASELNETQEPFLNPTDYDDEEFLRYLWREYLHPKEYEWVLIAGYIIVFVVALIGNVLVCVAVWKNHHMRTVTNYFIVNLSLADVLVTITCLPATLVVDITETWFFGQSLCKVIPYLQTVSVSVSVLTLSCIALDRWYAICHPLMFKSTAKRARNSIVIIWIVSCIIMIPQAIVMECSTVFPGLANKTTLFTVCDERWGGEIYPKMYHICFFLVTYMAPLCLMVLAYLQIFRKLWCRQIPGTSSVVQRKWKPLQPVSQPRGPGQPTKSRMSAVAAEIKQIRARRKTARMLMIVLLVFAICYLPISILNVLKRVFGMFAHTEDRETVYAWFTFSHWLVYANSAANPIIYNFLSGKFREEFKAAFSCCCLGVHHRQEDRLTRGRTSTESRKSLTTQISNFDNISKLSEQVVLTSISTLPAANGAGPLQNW
Protocol: as §1
Human Orexin 2 Receptor Radioligand Binding Studies
as §3, with “HEK293 stably expressing human orexin 2 receptor (Genebank accession number NM_001526) were grown to confluency in DMEM (Hyclone, cat # SH30022), 10% FBS, 1× Pen/Strep, 1× NaPyruvate, 10 mM HEPES, 600 ug/ml G418 media on 150 cm^2 tissue culture plates, washed with 5 mM EDTA in PBS (HyClone Dulbecco's Phosphate Buffered Saline 1× with Calcium and Magnesium, Cat # SH30264.01, hereafter referred to simply as PBS) and scraped into 50 ml tubes. After” for “After”, “sec just” for “sec”, “[^3H]-EMPA” for “[^3H]-(1-(5-(2-fluoro-phenyl)-2-methyl-thiazol-4-yl)-1-((S)-2-(5-phenyl-(1,3,4)oxadiazol-2-ylmethyl)-pyrrolidin-1-yl)-methanone)”

[1] = rat orexin 1 receptor, averages of 2-20 runs
[2] = human orexin 2 receptor, averages of 2-20 runs

Row | pKi (human orexin 1 receptor) | pKi (rat orexin 1 receptor; [1]) | pKi (human orexin 2 receptor; [2]) | Compound | pKi (rat orexin 1 receptor) | pKi (human orexin 2 receptor)
1 | 8.22 |  |  | Cc1cccc(C(=O)N2C[C@H]3C[C@@H](Oc4ccc(C(F)(F)F)cn4)[C@@H]2C3)c1-c1ncco1 [Example 32, (3-methyl-2-(oxazol-2-yl)phenyl)((1S,4R,6R)-6-((5-(trifluoromethyl)pyridin-2-yl)oxy)-2-azabicyclo[2.2.1]heptan-2-yl)methanone] |  | 
2 | 7.89 |  |  | O=C(c1ccccc1-n1nccn1)N1C[C@H]2C[C@@H](Oc3ccc(C(F)(F)F)cn3)[C@@H]1C2 [Example 36, (2-(2H-1,2,3-triazol-2-yl)phenyl)((1S,4R,6R)-6-((5-(trifluoromethyl)pyridin-2-yl)oxy)-2-azabicyclo[2.2.1]heptan-2-yl)methanone] |  | 
3 |  | 6.39 | 5.80 | O=C(c1ccccc1-n1nccn1)N1C[C@H]2C[C@@H](Oc3ccccn3)[C@@H]1C2 [Example 102, (2-(2H-1,2,3-triazol-2-yl)phenyl)((1S,4R,6R)-6-(pyridin-2-yloxy)-2-azabicyclo[2.2.1]heptan-2-yl)methanone] |  | 
4 |  | < 5.00 | < 5.00 | Cc1ccc(C(=O)N2C[C@H]3C[C@@H](Oc4ccccn4)[C@@H]2C3)c(-n2nccn2)n1 [Example 103, (6-methyl-2-(2H-1,2,3-triazol-2-yl)pyridin-3-yl)((1S,4R,6R)-6-(pyridin-2-yloxy)-2-azabicyclo[2.2.1]heptan-2-yl)methanone] |  | 
5 |  | 6.30 | 5.30 | O=C(c1cccc(F)c1-c1ncccn1)N1C[C@H]2C[C@@H](Oc3ccccn3)[C@@H]1C2 [Example 104, (3-fluoro-2-(pyrimidin-2-yl)phenyl)((1S,4R,6R)-6-(pyridin-2-yloxy)-2-azabicyclo[2.2.1]heptan-2-yl)methanone] |  | 
6 |  | 6.58 | 5.44 | Cc1ccc(-n2nccn2)c(C(=O)N2C[C@H]3C[C@@H](Oc4ccc(F)cn4)[C@@H]2C3)n1 [Example 119, ((1S,4R,6R)-6-((5-fluoropyridin-2-yl)oxy)-2-azabicyclo[2.2.1]heptan-2-yl)(6-methyl-3-(2H-1,2,3-triazol-2-yl)pyridin-2-yl)methanone] |  | 
7 |  | 6.37 | 5.17 | Cc1cnc(O[C@@H]2C[C@H]3C[C@@H]2N(C(=O)c2nc(C)ccc2-n2nccn2)C3)nc1 [Example 132, (6-methyl-3-(2H-1,2,3-triazol-2-yl)pyridin-2-yl)((1S,4R,6R)-6-((5-methylpyrimidin-2-yl)oxy)-2-azabicyclo[2.2.1]heptan-2-yl)methanone] |  | 
8 |  | 6.18 | < 5.00 | Cc1cnc(O[C@@H]2C[C@H]3C[C@@H]2N(C(=O)c2ncc(C)cc2-c2ncccn2)C3)nc1 [Example 134, (5-methyl-3-(pyrimidin-2-yl)pyridin-2-yl)((1S,4R,6R)-6-((5-methylpyrimidin-2-yl)oxy)-2-azabicyclo[2.2.1]heptan-2-yl)methanone] |  | 
9 |  | 6.42 | 5.33 | CCc1cnc(O[C@@H]2C[C@H]3C[C@@H]2N(C(=O)c2nc(C)ccc2-n2nccn2)C3)nc1 [Example 136, ((1S,4R,6R)-6-((5-ethylpyrimidin-2-yl)oxy)-2-azabicyclo[2.2.1]heptan-2-yl)(6-methyl-3-(2H-1,2,3-triazol-2-yl)pyridin-2-yl)methanone] |  | 
10 |  | 6.52 | 5.57 | CCc1cnc(O[C@@H]2C[C@H]3C[C@@H]2N(C(=O)c2nc(C)ccc2-c2ncccn2)C3)nc1 [Example 138, ((1S,4R,6R)-6-((5-ethylpyrimidin-2-yl)oxy)-2-azabicyclo[2.2.1]heptan-2-yl)(6-methyl-3-(pyrimidin-2-yl)pyridin-2-yl)methanone] |  | 
11 |  | 6.48 | 5.11 | Cc1ccc(-n2nccn2)c(C(=O)N2C[C@H]3C[C@@H](Oc4ccc(C(F)(F)F)nn4)[C@@H]2C3)n1 [Example 140, (6-methyl-3-(2H-1,2,3-triazol-2-yl)pyridin-2-yl)((1S,4R,6R)-6-((6-(trifluoromethyl)pyridazin-3-yl)oxy)-2-azabicyclo[2.2.1]heptan-2-yl)methanone] |  | 
12 |  | 6.42 | 5.10 | Cc1ccc(-c2ncccn2)c(C(=O)N2C[C@H]3C[C@@H](Oc4ccc(C(F)(F)F)nn4)[C@@H]2C3)n1 [Example 142, (6-methyl-3-(pyrimidin-2-yl)pyridin-2-yl)((1S,4R,6R)-6-((6-(trifluoromethyl)pyridazin-3-yl)oxy)-2-azabicyclo[2.2.1]heptan-2-yl)methanone] |  | 
13 |  | 8.22 | 6.45 | CN(c1ccc(C(F)(F)F)cn1)[C@@H]1C[C@H]2C[C@@H]1N(C(=O)c1cccc(F)c1-c1ncccn1)C2 [Example 157, (3-fluoro-2-(pyrimidin-2-yl)phenyl)((1S,4S,6R)-6-(methyl(5-(trifluoromethyl)pyridin-2-yl)amino)-2-azabicyclo[2.2.1]heptan-2-yl)methanone] |  | 
14 |  | < 5.00 | < 5.00 | CC(=O)N(c1ccc(C(F)(F)F)cn1)[C@@H]1C[C@H]2C[C@@H]1N(C(=O)c1cccc(F)c1-c1ncccn1)C2 [Example 162, N-((1S,4R,6R)-2-(3-fluoro-2-(pyrimidin-2-yl)benzoyl)-2-azabicyclo[2.2.1]heptan-6-yl)-N-(5-(trifluoromethyl)pyridin-2-yl)acetamide] |  | 
15 |  | 5.68 | 5.52 | COC(=O)c1cnc(N[C@@H]2C[C@H]3C[C@@H]2N(C(=O)c2ccccc2-n2nccn2)C3)cn1 [Example 221, methyl 5-(((1S,4S,6R)-2-(2-(2H-1,2,3-triazol-2-yl)benzoyl)-2-azabicyclo[2.2.1]heptan-6-yl)amino)pyrazine-2-carboxylate] |  | 
16 |  | 6.58 | < 5.00 | O=C(c1cccnc1-n1nccn1)N1C[C@H]2C[C@@H](Nc3ncc(C(F)(F)F)cn3)[C@@H]1C2 [Example 222, (2-(2H-1,2,3-triazol-2-yl)pyridin-3-yl)((1S,4S,6R)-6-((5-(trifluoromethyl)pyrimidin-2-yl)amino)-2-azabicyclo[2.2.1]heptan-2-yl)methanone] |  | 
17 |  | 6.55 | 5.96 | CCOc1ccc(C)nc1C(=O)N1C[C@H]2C[C@@H](Nc3ncc(C(F)(F)F)cn3)[C@@H]1C2 [Example 233, (3-ethoxy-6-methylpyridin-2-yl)((1S,4S,6R)-6-((5-(trifluoromethyl)pyrimidin-2-yl)amino)-2-azabicyclo[2.2.1]heptan-2-yl)methanone] |  | 
18 |  |  |  | O=C(c1ccccc1-n1nccn1)N1C[C@@H]2CC[C@H]1[C@H](Nc1cnc(C(F)(F)F)cn1)C2 [Example 275, (2-(2H-1,2,3-triazol-2-yl)phenyl)((1S,4R,6R)-6-((5-(trifluoromethyl)pyrazin-2-yl)amino)-2-azabicyclo[2.2.2]octan-2-yl)methanone] | 8.10 | 6.76
19 |  | 5.57 | < 5.00 | O=C(c1cccc(F)c1-c1ncccn1)N1C[C@H]2CC[C@@H]1[C@@H](Nc1cnc(C(F)(F)F)cn1)C2 [Example 276, (3-fluoro-2-(pyrimidin-2-yl)phenyl)((1R,4S,6S)-6-((5-(trifluoromethyl)pyrazin-2-yl)amino)-2-azabicyclo[2.2.2]octan-2-yl)methanone] |  | 
20 |  | 6.09 | 5.51 | Cc1ccc(-n2nccn2)c(C(=O)N2C[C@H]3C[C@@H](Oc4ccc5cccnc5n4)[C@@H]2C3)n1 [Example 286, ((1S,4R,6R)-6-((1,8-naphthyridin-2-yl)oxy)-2-azabicyclo[2.2.1]heptan-2-yl)(6-methyl-3-(2H-1,2,3-triazol-2-yl)pyridin-2-yl)methanone] |  | 

From patent US9611277B2 (Janssen Pharmaceutica NV, priority 2013, dated 2017)
